Laboratory results as given in patent US6569640B1, “Method of fractionation of biologically-derived materials using critical fluids” (Aphios Corporation, priority 1993, dated 2003).

System: Bacillus subtilis
Assay: Antimicrobial disk diffusion assay
Format: cell-based
Conditions: disks containing 10 μg
Method: Microbial extracts were tested for antimicrobial activity by a disk diffusion assay. Diffusion of the metabolites into the agar creates a zone of growth inhibition around the disk if the organism is susceptible to the antimicrobial metabolite. Ten to 20 μl amounts of extract or extract fractions were applied to Whatman 3MM filter paper disks 7 mm in diameter. The disks were dried under vacuum overnight to evaporate the solvent. Bioassays were carried out with the target organism Bacillus subtilis. The target organisms were grown in nutrient broth (Difco), and adjusted to an A600 of 0.1. One hundred μl of the cell suspension was applied to the surface of a nutrient agar plate and spread uniformly with a sterile spreader. After the liquid had absorbed into the agar, the disks were placed on the surface, about 1 cm apart. The plates were incubated at 25-30° C. for 24-36 hours. Antimicrobial activity was indicated by a zone of inhibition around a disk where bacterial growth was prevented. […] In addition, positive and negative control disks were utilized. For the negative control, a disk which received only methanol was run in each test. […] For the positive control, disks containing the antimicrobial gentamycin (10 μg) were used.

## gentamycin
  zone of inhibition, positive control disk: showed zones of inhibition
